Experimental data taken from PubChem BioAssay (NCI).
“And” between values parts separate entries of the source, which are not always exact repeats. Equal values may be shown once.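 The compound was tested at five concentrations on cells cultured in 96-well plates, with a 48-hour exposure period. GI50: concentration for 50% inhibition of growth. TGI: total growth inhibition.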

How the values were obtained:
Assay in all cases: NCI-60 cell line screen, 48 h
SF-295 CNS = test system: SF-295 CNS
EKVX NSCLC = test system: EKVX NSCLC
SK-OV-3 ovarian = test system: SK-OV-3 ovarian
KM12 colon = test system: KM12 colon
HCT-116 colon = test system: HCT-116 colon
HCT-15 colon = test system: HCT-15 colon
SF-268 CNS = test system: SF-268 CNS
SF-539 CNS = test system: SF-539 CNS
RXF 393 renal = test system: RXF 393 renal
ACHN renal = test system: ACHN renal

Structure (SMILES)	GI50 (SF-295 CNS) [µM]	TGI (SF-295 CNS) [µM]	GI50 (EKVX NSCLC) [µM]	TGI (EKVX NSCLC) [µM]	GI50 (SK-OV-3 ovarian) [µM]	TGI (SK-OV-3 ovarian) [µM]	GI50 (KM12 colon) [µM]	TGI (KM12 colon) [µM]	GI50 (HCT-116 colon) [µM]	TGI (HCT-116 colon) [µM]	GI50 (HCT-15 colon) [µM]	TGI (HCT-15 colon) [µM]	GI50 (SF-268 CNS) [µM]	TGI (SF-268 CNS) [µM]	GI50 (SF-539 CNS) [µM]	TGI (SF-539 CNS) [µM]	GI50 (RXF 393 renal) [µM]	TGI (RXF 393 renal) [µM]	GI50 (ACHN renal)	TGI (ACHN renal) [µM]
Cc1cc(F)c(C(=O)Nc2cccc(-c3nncn3C(C)C)n2)cc1-n1cnc(C2CC2)c1	13.3	80.9	13.1	52.3	24.5	> 100	20.7	95.6	8.25	> 100	15.6	96.4	21.5	> 100	11.6	34.4	20.6	49.1	10.4 µM	27.7
C=CC(=O)N[C@@H]1CN(c2nc(Nc3cn(C)nc3OC)c3ncn(C)c3n2)C[C@H]1F	38.9	> 100	0.273	97.9	0.0881	> 47.2	33.6	> 100	27.3	> 100	39	> 100	21.5	> 100	28.1	> 100	34.1	> 84.5	0.506 µM	> 100
O=C(O)C1C2C=CC(O2)C1C(=O)NCc1cccnc1 (stereo not drawn)		> 100		> 100		> 100		> 100		> 100		> 100		> 100		> 100		> 100		> 100
N#CCCN(CCC#N)c1ccc(/C=C(/NC(=O)c2cc([N+](=O)[O-])ccc2Cl)C(=O)N=[N+]=[N-])cc1		> 100		> 100		> 100		> 100		> 100		> 100		> 100		> 100		> 100		> 100
N#Cc1ncc(C(Cl)Cl)nc1Cl		> 10		3.27		> 10		2.7		3.04		3.87		> 7.78		3.44		3.39		4.32
COc1ccc(C(=O)/C=C/c2sc(Cl)nc2Cl)cc1	3.07	11.7	3.67	14.8	7.68	23.7	2.75	7.54	0.49	1.84	0.416	2.14	3.23	16.4	1.56	4.26	1.28	3.02	1.66 µM	3.05
O=C(COc1ccc(/C=C2\Oc3ccc4ccccc4c3C2=O)cc1)c1ccc([N+](=O)[O-])cc1	13.7	36.4	47.6	> 100	24.2	73.7	10.9	23.4	3.03	13.8	7.6	20.4	13.2	33.7	13.8	28.1	8.55	60.5	28.3 µM	88.2
NC1=NN(c2ccccc2)C(=O)C1C(=O)C(=O)Nc1ccc(Cl)cc1 (stereo not drawn)		> 100		> 100		> 100		> 100		> 100		> 100		> 100		> 100		> 100		> 100
Nc1nc(=O)n(C2CC(O)C(CO)O2)cc1F (stereo not drawn)		> 100		> 100	> 100	> 100	> 66.3	> 100	1.49	> 100	28.4	> 100	0.00946	> 100	0.00418	< 0.0448	> 57.8	> 100	0.00802 µM and < 0.0108 µM	> 100
CCOC(=O)C1(CC(=O)O)CCCC1=O (stereo not drawn)		> 100		> 100		> 100		> 100		> 100		> 100		> 100		> 100		> 100		> 100
CN(C)c1ccc(C(=S)c2ccc(N(C)C)cc2)cc1	4.73	> 100	16.5	> 100	10.9	> 100	3.88	> 100	3.71	> 100	4.27	> 100	10.1	> 100	7.1	56.4	4.81	42.9	13.4 µM	> 100
C[C@H]1CCC/C=C/C2CC(OC(=O)CN(C)C)CC2C(OC(=O)CN(C)C)/C=C/C(=O)O1 (stereo partly drawn)	1.11	37.2	0.558	> 87.8	0.237		0.198	1.31	0.762	16.7	0.272	> 32.4	0.484	> 100	0.531	> 100	0.0972	0.314	0.398 µM	11.9
C[C@@H]1CC[C@H]2[C@@H](C)C(O)O[C@@H]3O[C@]4(C)CC[C@@H]1[C@]32OO4 (stereo partly drawn)	0.625	35.4	0.65	17.2	11.8	> 60.3	0.213	8.78	0.141	3.55	0.141	13.8	1.4	> 62.7	0.868	14.2	1.15	17.8	1.26 µM	13
CNC(=O)c1cc(Oc2ccc3nc(NC(=O)Nc4ccc(CN5CCOCC5)c(C(F)(F)F)c4)sc3c2)ccn1	1.9	4.73	2.1	7.55	2.18	4.81	0.446	2.31	1.78	3.62	2.08	7.09	3.22	14.6	1.58	3.37	1.81	4.03	1.68 µM	4.21
O=C(NCCCCCCCCCCCCNC(=O)c1cnc2ccccc2n1)c1cnc2ccccc2n1		> 100		> 100		55.5		> 100		> 100		> 100		> 100		36.8		88.6		> 100
Cc1c2cnccc2c(C)c2c1c1cc(O)ccc1n2C(C)C	1.7	5.35	0.846	2.41	0.709	5.55	0.57	9.87	0.964	6.56	0.44	4.2	1.18	3.62	1.32	2.9	0.935	2.39	0.285 µM	1.77

Structure (SMILES)	GI50 (SF-295 CNS) [µM]	TGI (SF-295 CNS) [µM]	GI50 (EKVX NSCLC) [µM]	TGI (EKVX NSCLC) [µM]	GI50 (SK-OV-3 ovarian) [µM]	TGI (SK-OV-3 ovarian) [µM]	GI50 (KM12 colon) [µM]	TGI (KM12 colon) [µM]	GI50 (HCT-116 colon) [µM]	TGI (HCT-116 colon) [µM]	GI50 (HCT-15 colon) [µM]	TGI (HCT-15 colon) [µM]	GI50 (SF-268 CNS) [µM]	TGI (SF-268 CNS) [µM]	GI50 (SF-539 CNS) [µM]	TGI (SF-539 CNS) [µM]	GI50 (RXF 393 renal) [µM]	TGI (RXF 393 renal) [µM]	GI50 (ACHN renal)	TGI (ACHN renal) [µM]
C[C@@H](Nc1nc(N[C@H](C)C(F)(F)F)nc(-c2cccc(Cl)n2)n1)C(F)(F)F	35.2	> 100	70.7	> 100	37.6	> 100	> 100	> 100	59.4	> 100	> 100	> 100	29.4	> 100	26.5	68.6	23.2	94.7	36.4 µM	> 100
O=C1/C(=C/c2cccnc2)SC(=S)N1Cc1ccco1		> 100		> 100		> 75.9		14.5		> 24.9		> 100		> 23.9		6.12		24.2		> 48.9
COc1ccc(-c2nn(-c3cccc(Cl)c3)cc2/C=C2\NC(=S)N(c3ccc(Cl)cc3)C2=O)cc1	4.63	12	4.32	15.8	3.77	8.22	10.1	> 25	3.18	7.75	7.94	> 25	7.41	> 25	8.22	> 25	3.02	9.97	3.72 µM	> 25
COc1ccc(-n2cc(-c3cc(OC)c(OC)c(OC)c3)nc2SCc2ccc(Cl)cc2)cc1OC	> 100	> 100	95.3	> 100	> 100	> 100	> 100	> 100	> 100	> 100	30.5	> 100	> 100	> 100	> 100	> 100	> 100	> 100	> 100 µM	> 100
C/C(=N\Nc1ccccc1)c1sc(-c2nc(C)c(/C(C)=N/Nc3ccccc3)s2)nc1C		> 34.9		> 100		> 100		> 100		> 100		> 20.2		> 64.6		> 37.7		> 87.9		> 32
Oc1ccc2ccccc2c1CCc1c(O)ccc2ccccc12		28.7		26.4		29.4		24.8		25.1		28		25.2		30.3		27.5		30
O=C1C=CC2(CCCCCCC2=O)CC1 (stereo not drawn)		> 100		> 100		> 100		> 100		> 100		> 100		> 100		> 100		> 100		> 100
CC(=O)OC1C[C@H]2C(OC(=O)c3ccccc3)C3C4(OC(C)=O)COC4C[C@H](OC(C)=O)[C@@]3(C)C(OC(C)=O)[C@H](OC(C)=O)C(=C1C)C2(C)C (stereo partly drawn)		> 100		> 100		> 100		> 100		> 100		> 100		> 100		> 100		49.3		> 100
CCCCCCCCCCC(=O)CCCCCCC(=O)O		48.7		> 100		> 100		29.9		26.7		28		> 100		43.8		91.5		56.6
Cc1ccccc1/C=C/c1csnn1		> 100		> 100		> 100		> 100		> 59.3		> 57.5		> 71.4		> 100		> 100		> 100
O=C1Cc2c(-c3ccccc3)cc(-c3ccccc3)nc2-c2ccccc2N1		10.7		80.3		18.9		> 100		5.37		4.4		19.3		34.4		> 100	4.04 µM	19
O=S(=O)(C1=CC(S(=O)(=O)c2ccccc2)COC1)c1ccccc1 (stereo not drawn)		> 100		> 100		> 100		> 100		> 100		> 100		> 100		> 100		> 100		> 100
O=C(CCC(=O)Nc1ccccc1C(F)(F)F)N/N=C1\C(=N\NC(=O)CCC(=O)Nc2ccccc2C(F)(F)F)C(c2ccc3c(c2)OCO3)Oc2ccccc21 (stereo not drawn)		> 100		> 100		> 82.5		> 100		> 100		> 100		18.9		54.6		> 71.7		> 100
O=CC(OC(=O)c1ccccc1)C(OC(=O)c1ccccc1)C(COC(c1ccccc1)(c1ccccc1)c1ccccc1)OC(=O)c1ccccc1 (stereo not drawn)	23.8	73.5	19.6	61.5	21.3	48.2	14.3	31	6.21	19	16.6	43.1	12.7	32.3	5.28	19.4	4.11	21.1	11.4 µM	24
Cc1cc(=O)oc2c(C3=NN(C=O)C(c4ccccc4)C3)c(O)ccc12 (stereo not drawn)		> 31.1		> 100		48.2		> 100		> 100		> 100		> 100		> 94.4		> 80.5		> 42.8
CCc1cccc(C(C)C)c1NC(=O)CC1Sc2ccccc2NC1=O (stereo not drawn)		> 100		> 100		> 100		> 100		> 100		> 100		> 100		> 100		96.3		> 100
